The values that follow come from paper PMC3529809 (Steroids, 2012).

Several values for one entry are separate records, joined by “and”; a condition that tells them apart may be missing. Equal values may be shown once. Entries after “also recorded” stand apart in the source; their conditions may differ.

As a reminder, the IC50 is the concentration that gives 50% inhibition. For orientation: inhibition means how much of the control response was suppressed.

For one test, the system named is MCF-7 cells. To be noted: cited from earlier work; for proliferation of MCF-7 cells: 1–10 µM concentrations.
The target in test [1] is T1, human ERβ (Homo sapiens, UniProt Q92731). Kind of test: [3H] E2 ligand binding competition. To be noted: IC50 for ERβ, competition with 30 nM [3H] E2, Fig. 6B.
T1 sequence (Q92731 whole entry): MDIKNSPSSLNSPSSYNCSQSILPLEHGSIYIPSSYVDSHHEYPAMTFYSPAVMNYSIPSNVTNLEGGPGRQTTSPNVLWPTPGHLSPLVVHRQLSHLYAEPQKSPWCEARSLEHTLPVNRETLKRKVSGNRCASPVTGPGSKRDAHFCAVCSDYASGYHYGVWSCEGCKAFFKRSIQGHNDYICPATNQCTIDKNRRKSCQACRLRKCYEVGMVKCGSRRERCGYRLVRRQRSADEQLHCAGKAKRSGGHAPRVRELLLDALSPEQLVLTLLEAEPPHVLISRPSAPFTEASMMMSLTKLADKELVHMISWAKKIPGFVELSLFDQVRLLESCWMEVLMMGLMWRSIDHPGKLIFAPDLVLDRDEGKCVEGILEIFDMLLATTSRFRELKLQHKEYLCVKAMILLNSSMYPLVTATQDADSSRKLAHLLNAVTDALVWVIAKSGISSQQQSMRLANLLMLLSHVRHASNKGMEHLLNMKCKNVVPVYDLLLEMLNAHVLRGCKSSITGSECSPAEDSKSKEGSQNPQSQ
Test [2] addresses T1, human ERβ. Kind of test: ERELUC transient transfection reporter assay, ERβ in HepG2 cells. Format: cell-based. To be noted: for ERELUC activity in ERβ-expressing HepG2 cells: 5 µM, 24 h, Fig. 1B, result in words; for effect on ERβ-mediated induction of ERELUC by E2, DHEA, 7-oxo-DHEA, ADIOL and ADIONE: 1 µM ICI, 100 nM 4-OHT, 1 µM R,R-THC, 5 µM sterol, Fig. 3B. In general terms: A reporter such as luciferase makes a cellular process visible.

The subject of another test is NRF1 (NRF-1) expression. Kind of test: QRT-PCR of NRF1 in ERβ-transfected HepG2 cells. Format: cell-based, human. As to conditions: 10 nM E2 or 5 µM sterol, 24 h, Fig. 5B.
For test [3], the system named is MCF-7 human breast cancer cells. Kind of test: Cell proliferation BrdU assay. Format: cell-based. As to conditions: for MCF-7 cell proliferation: 48 h BrdU, 10 nM E2, 5 µM sterols, Fig. 7. In general terms: Dividing cells build labelled thymidine or BrdU into new DNA.
Test [4] deals with TFF1 (pS2), PGR (PR), CTSD (cathepsin D) transcription. Description: QRT-PCR of endogenous ER-target genes in ERα-transfected HEK-293 cells. It counts as cell-based, human. To be noted: 10 nM E2 or 5 µM sterol, 24 h, Fig. 5A.
The target of test [5] is T2, hERα (Homo sapiens, UniProt P03372). Kind of test: ERELUC transient transfection reporter assay, ERα in HEK-293 cells. Format: cell-based. To be noted: for ERα agonist activity in ERELUC assay: result in words.
T2 sequence (P03372 whole entry): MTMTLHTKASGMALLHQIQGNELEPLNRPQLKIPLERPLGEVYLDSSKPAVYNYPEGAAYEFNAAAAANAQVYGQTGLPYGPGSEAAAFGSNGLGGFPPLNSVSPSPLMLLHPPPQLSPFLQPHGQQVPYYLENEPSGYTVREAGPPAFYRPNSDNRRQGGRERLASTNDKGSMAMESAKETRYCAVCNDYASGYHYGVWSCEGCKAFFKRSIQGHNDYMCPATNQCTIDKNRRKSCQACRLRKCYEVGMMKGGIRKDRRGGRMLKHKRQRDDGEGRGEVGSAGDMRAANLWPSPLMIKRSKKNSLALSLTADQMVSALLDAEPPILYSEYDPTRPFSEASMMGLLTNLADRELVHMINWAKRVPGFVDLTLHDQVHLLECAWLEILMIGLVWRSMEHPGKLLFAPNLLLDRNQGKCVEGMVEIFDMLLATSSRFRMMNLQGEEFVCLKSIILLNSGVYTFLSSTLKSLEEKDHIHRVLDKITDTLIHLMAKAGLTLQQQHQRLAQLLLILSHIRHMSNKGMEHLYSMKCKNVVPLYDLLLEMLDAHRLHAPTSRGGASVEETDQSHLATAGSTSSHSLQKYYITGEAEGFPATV
Test [6] deals with T2, hERα. Description: [3H] E2 ligand binding competition. To be noted: for ERα binding / competition with E2: result in words.
Test [7] deals with T2, hERα. Format: cell-based. To be noted: Supplemental Fig. 1.
[8] abbreviates: MEK1/2 inhibitor, data not shown.

As to `C[C@]12CC[C@H](O)C[C@@H]1C[C@@H](O)[C@@H]1[C@@H]2CC[C@]2(C)C(=O)CC[C@@H]12` [7α-OH-EpiA, 7α-hydroxy-epiandrosterone], the MCF-7 proliferation result with MCF-7 cells (1–100 nM) is reported as “inhibited”.

Consider `C[C@]12CC[C@H](O)C[C@@H]1C[C@H](O)[C@@H]1[C@@H]2CC[C@]2(C)C(=O)CC[C@@H]12` [7β-OH-EpiA, 7β-Hydroxy-epiandrosterone], for which, in the test with MCF-7 cells (1–100 nM, no dose-response detected), the “E2-induced proliferation of MCF-7 cells” value is reported as “inhibited”. Further, the “cell proliferation, compound alone” value with MCF-7 cells (1–100 nM) is “did not affect”.

As to `C[C@]12CCC(=O)CC1=CC[C@@H]1[C@@H]2CC[C@]2(C)C(=O)CC[C@@H]12` [ADIONE, androst-5-ene-3,17-dione], the IC50 on human ERβ [1] was 50 µM and ~50 µM. In addition, the “ERELUC activity in ERβ-expressing HepG2 cells” value at human ERβ [2] is reported as “significantly induced”; on human ERβ [2] (listed as androst-5-ene-3,17-dione), “effective in activating”. Besides, the “NRF-1 mRNA expression” value in the test with NRF1 (NRF-1) expression is “did not increase”. In addition, in test [3], the MCF-7 cell proliferation result is “increased”.

Regarding `CC(O)(CS(=O)(=O)c1ccc(F)cc1)C(=O)Nc1ccc(C#N)c(C(F)(F)F)c1` (centres unmarked) [Bicalutamide, reference compound], in test [3] (10 µM bicalutamide, pretreatment 4 h, also blocked DHT-induced proliferation), the “effect on DHEA-, 7-oxo-DHEA-, ADIOL- and ADIONE-induced proliferation” value is given as “inhibited”.

For the compound `C[C@]12CCC(=O)C[C@@H]1CC[C@@H]1[C@@H]2CC[C@]2(C)[C@@H](O)CC[C@@H]12` [DHT, dihydrotestosterone, reference compound], the “proliferation of MCF-7 cells” value in the test with MCF-7 cells was “stimulated proliferation”. In [3], the MCF-7 cell proliferation entry is “concentration-dependent increase”.

As to `CC[C@@H]1Cc2cc(O)ccc2C2=C1c1ccc(O)cc1C[C@H]2CC` (relative stereo) [R,R-THC, R,R-cis-diethyl tetrahydrochrysene, reference compound], at human ERβ [2], the “effect on ERβ-mediated induction of ERELUC by E2, DHEA, 7-oxo-DHEA, ADIOL and ADIONE” value (shortened to “effect on ERβ-mediated induction”) is “significantly inhibited”.

For the compound `C[C@]12CC[C@H](O)CC1=CC(=O)[C@@H]1[C@@H]2CC[C@]2(C)C(=O)CC[C@@H]12` [7-oxo-DHEA, 3β-hydroxyandrost-5-ene-7,17-dione], in test [4], the “CTSD (cathepsin D) expression” value is given as “no activation”, the “PGR (PR) expression” value was “no activation” and the “TFF1 (pS2) expression” value is listed as “increased”. The compound also showed an IC50 at human ERβ [1] of 500 µM. The “ERELUC activity in ERβ-expressing HepG2 cells” value on human ERβ [2] is “significantly induced”. Also, the “NRF-1 mRNA expression” value with NRF1 (NRF-1) expression is given as “low induction”. Also, the MCF-7 cell proliferation entry in test [3] is recorded as “increased”. In addition, the “ERα agonist activity in ERELUC assay” value at hERα [5] (HEK-293) was “lack of ERα-induced ERE-luciferase activity”. Moreover, the “ERα binding / competition with E2” value at hERα [6] is on record as “did not exhibit significant ERα binding”.

As to `C=C1C[C@@H]2[C@H](CC[C@]3(C)C(=O)CC[C@@H]23)[C@@]2(C)C=CC(=O)C=C12` [exemestane, reference compound], the “effect on ADIONE activation of ERβ” value at human ERβ [2] (100 nM exemestane, HepG2, Fig. 4B) was “no effect”. Also, the inhibition at 0.1 µM on human ERβ [2] (HepG2, read-out: inhibition of DHEA-, ADIOL- and 7-oxo-DHEA-induced ERELUC reporter activity) is 20 to 30%. Besides, the “effect on proliferation with ADIOL or ADIONE” value in test [3] (100 nM exemestane, 5 µM sterol, 48 h) is reported as “no inhibitory activity”. Besides, the “effect on E2, DHEA or ADIOL induced ERELUC activity in ERα-transfected cells” value on hERα [5] (100 nM exemestane, HEK-293, Fig. 4A) was “did not significantly inhibit”.

For the compound `C[C@]12CCC(=O)C=C1CC[C@@H]1[C@@H]2CC[C@]2(C)C(=O)CC[C@@H]12` [androst-4-ene-3,17-dione], the “ERELUC activity in ERβ-expressing HepG2 cells” value at human ERβ [2] is “effective in activating”.

Consider `COc1cccc(-c2cc(=O)c3ccccc3o2)c1N` [PD998059, reference compound], for which the “effect on DHEA or metabolite-induced ERELUC activity, ERβ” value at human ERβ [2] (setting [8]) is reported as “did not block”. Also, the “effect on DHEA or metabolite-induced ERELUC activity, ERα” value at hERα [5] (setting [8]) is reported as “did not block”.

For `C[C@]12CC[C@@H]3c4ccc(O)cc4C[C@@H](CCCCCCCCC[S+]([O-])CCCC(F)(F)C(F)(F)F)[C@H]3[C@@H]1CC[C@@H]2O` (some centres unmarked) [ICI 182,780, reference compound], on human ERβ [2], the “effect on ERβ-mediated induction” value is “inhibited”. For the same compound, in the test with MCF-7 cells, the “effect on the proliferative activity of 10 nM DHEA in MCF-7 cells” value was “lack of inhibition”. For the same compound, the “effect on E2-induced stimulation of MCF-7 cell proliferation” value in test [3] (100 nM ICI 182,780, pretreatment 6 h) was “inhibited”. Besides, the “effect on ERα-mediated induction of ERELUC by E2, DHEA, DHEA-S and ADIOL” value at hERα [5] (1 µM ICI, 100 nM 4-OHT, 1 µM R,R-THC, 5 µM sterol, Fig. 3A) was “inhibited”.

In the case of `C[C@]12CC[C@@H]3c4ccc(O)cc4CC[C@H]3[C@@H]1CC[C@@H]2O` [E2, 17β-estradiol, reference compound], in [4], the “CTSD (cathepsin D) expression” value was “increased”, the “PGR (PR) expression” value is given as “increased” and the “TFF1 (pS2) expression” value is given as “increased”. Moreover, the “NRF-1 mRNA expression” value in the test with NRF1 (NRF-1) expression is “statistically significant increase; also recorded: low induction”.

On to `C[C@]12CC[C@H](OS(=O)(=O)O)CC1=CC[C@@H]1[C@@H]2CC[C@]2(C)C(=O)CC[C@@H]12` [DHEA-S, DHEA 3β-sulfate], for which, in test [4], the “CTSD (cathepsin D) expression” value is on record as “increased”, the “PGR (PR) expression” value was “increased” and the “TFF1 (pS2) expression” value is listed as “increased”. In addition, in the test with MCF-7 cells (less than E2), the MCF-7 cell proliferation result is reported as “increased cell proliferation”. The MCF-7 cell proliferation result in [3] is reported as “increased”. Also, the “induction of ERELUC activity via ERα” value at hERα [5] (5 µM, 24 h, HEK-293, Fig. 1B) is listed as “around 9 fold”. For the same compound, on hERα [5] (concentration-response, at higher concentrations, HEK-293, Fig. 2A), the “induction of ERELUC expression with ERα” value is listed as ~ 2 fold. The IC50 on hERα [6] (read-out: IC50 for ERα, competition with 30 nM [3H] E2, Fig. 6A) lay in the range of 100 to 500 µM.

Take `C[C@]12CC[C@H](O)CC1=CC[C@@H]1[C@@H]2CC[C@]2(C)C(=O)[C@H](O)C[C@@H]12` [16α-OH-DHEA, 16α-hydroxy-DHEA]: in test [4], the “CTSD (cathepsin D) expression” value was “no activation”, the “PGR (PR) expression” value was “no activation” and the “TFF1 (pS2) expression” value is “increased”. For the same compound, at human ERβ [2], the “ERELUC activity in ERβ-expressing HepG2 cells” value is “increased”. Also, in the test with NRF1 (NRF-1) expression, the “NRF-1 mRNA expression” value is reported as “statistically significant increase; also recorded: low induction”. In addition, the “ERα agonist activity in ERELUC assay” value at hERα [5] (HEK-293) was “lack of ERα-induced ERE-luciferase activity”.

In the case of `C[C@]12CC[C@H](O)CC1=CC[C@@H]1[C@@H]2[C@@H](O)C[C@]2(C)C(=O)CC[C@@H]12` [11β-OH-DHEA, 11β-hydroxy-DHEA], the “ERELUC activity in ERβ-expressing HepG2 cells” value at human ERβ [2] is reported as “suppressed”.

`C[C@]12CC[C@H]3[C@@H](CCC4=CC(=O)CC[C@@]43C)[C@@H]1CC[C@@H]2O` [testosterone]: in the test on MCF-7 cells, the “proliferation of MCF-7 cells” value is reported as “stimulated proliferation”.

On to `C[C@]12CC[C@H](O)CC1=C[C@H](O)[C@@H]1[C@@H]2CC[C@]2(C)C(=O)CC[C@@H]12` [7β-OH-DHEA, 7β-hydroxy-DHEA], for which the “ERELUC activity in ERβ-expressing HepG2 cells” value on human ERβ [2] was “suppressed”.

In the case of `Clc1ccc(COC(Cn2ccnc2)c2ccc(Cl)cc2Cl)c(Cl)c1` (centres unmarked) [miconazole, reference compound], the “effect on ERβ activation of ERELUC in response to E2, ADIOL, DHEA, ADIONE and 7-oxo-DHEA” value at human ERβ [2] (5 µM miconazole, HepG2, Fig. 4B) is recorded as “reduced”. Besides, the “effect on E2-induced ERα-ERE-LUC activity” value on hERα [7] (10 nM E2, miconazole pretreatment) is “inhibited”. Besides, the “increase of basal ERE-luciferase reporter activity” value on hERα [7] (miconazole pretreatment) is ~ 0.8 fold. Besides, the “effect on MCF-7 cell proliferation induced by E2, DHEA, ADIOL and ADIONE” value in [3] (5 µM miconazole, 48 h) is given as “inhibited”. Further, on hERα [5] (5 µM miconazole, HEK-293), the “effect on DHEA-stimulated ERα transcriptional activity” value was “did not inhibit”. Further, the “effect on ERα activation of ERELUC in response to E2 and ADIOL” value at hERα [5] (5 µM miconazole, HEK-293, Fig. 4A) was “reduced”. Further, the “inhibition of [3H] E2 binding to recombinant human ERα” value at hERα [6] (100 µM competitor, Supplemental Fig. 2) worked out at 15%. In addition, at hERα [6], the “ERα binding / competition with E2” value is given as “did not compete”.

In the case of `CC/C(=C(\c1ccc(O)cc1)c1ccc(OCCN(C)C)cc1)c1ccccc1` [4-OHT, 4-hydroxytamoxifen, reference compound], the “effect on ERβ-mediated induction” value at human ERβ [2] is listed as “inhibited”.
